Assay results reported in patent US7713963B2, “Acylated indanyl amines and their use as pharmaceuticals” (sanofi-aventis Deutschland GmbH, priority 2001, dated 2010).
Read-outs that look alike come from different tables or passages of the source.

Tested on: eNOS promoter
Assay: Activation of eNOS transcription (eNOS promoter-luciferase reporter gene assay)
Assay type: cell-based, human
Conditions: for maximal fold induction: read-out: TIR (max)
Experimental: Measurement of activation of eNOS transcription Activation of eNOS transcription was measured as described in detail in Li et al. “Activation of protein kinase C alpha and/or epsilon enhances transcription of the human endothelial nitric oxide synthase gene”, Mol. Pharmacol. 1998; 53: 630-637. Briefly, a 3.5 kB long fragment 5′ of the starting codon of the eNOS gene was cloned, sequenced and cloned in firefly luciferase expression plasmids to monitor activation of the eNOS promoter by reporter gene activity. A human endothelial cell line stable transfected and expressing this promoter-reporter construct was used for compound testing. Cells were incubated for 18 h with compounds. All compounds were dissolved in sterile DMSO. A final concentration of 0.5% DMSO in complete medium was allowed. Induction of reporter gene expression in these cells was measured using a standard luciferase assay system (Promega, Cat. No E150) according to the manufacturer's instructions. Luciferase induction in cells incubated with compounds were compared to those incubated with solvent alone. The ratio of both activities (transcription induction ratio, TIR) was plotted as a function of compound concentration. […] EC50 values of transcription induction ratios as a function of compound concentration were determined graphically.

[1] = Homo sapiens, 18 h, maximum transcription induction ratio (luciferase with compound / solvent alone), 18 h incubation
[2] = Homo sapiens, Endothelial cell, 18 h, EC50 of transcription induction ratio, determined graphically, human endothelial cell line, 18 h incubation, read-out: EC-50
[3] = EC50 of transcription induction ratio, determined graphically, human endothelial cell line, 18 h incubation, read-out: EC-50
[4] = maximum transcription induction ratio (luciferase with compound / solvent alone), 18 h incubation

`O=C(N[C@@H]1Cc2ccccc2[C@H]1O)c1ccc(F)cc1` (relative stereo) [Compound 8, 4-FLUORO-N-(TRANS-1-HYDROXY-INDAN-2-YL)-BENZAMIDE] gave a maximal fold induction [1] of 2.2 and an EC50 [2] of 8 µM.
`O=C(NC1Cc2cccc(Br)c2C1)c1ccc(F)cc1` (single isomer, unassigned) [Compound 396A, N-(4-BROMO-INDAN-2-YL)-4-FLUORO-BENZAMIDE] showed a maximal fold induction [1] of 3.55 and an EC50 [2] of 0.6 µM.
`Cc1cccc2c1CC(NC(=O)c1ccc(F)cc1)C2` (single isomer, unassigned; (+)) [Compound 1b, (+)-4-Fluoro-N-(4-methyl-indan-2-yl)-benzamide] was tested, and the EC50 [3] was 0.2 µM and the “TIR (max)” value [4] was 3.00.
Work on `Cc1cccc2c1CC(NC(=O)c1ccc(F)cc1)C2` (single isomer, unassigned; (-)) [Compound 1a, (−)-4-Fluoro-N-(4-methyl-indan-2-yl)-benzamide] yielded an EC50 [3] of 6 µM and a maximal fold induction [1] of 2.8.
In the case of `O=C(NC1Cc2ccc(F)cc2C1)c1ccc(F)cc1` (stereo not drawn) [Compound 4, 4-FLUORO-N-(5-FLUORO-INDAN-2-YL)-BENZAMIDE], the maximal fold induction [1] is reported as 2.95 and the EC50 [2] is reported as 3 µM.
`Cc1ccc2c(c1)CC(NC(=O)c1ccc(F)cc1)C2` (stereo not drawn) [Compound 5, 4-FLUORO-N-(5-METHYL-INDAN-2-YL)-BENZAMIDE] showed a maximal fold induction [1] of 2.5 and an EC50 [2] of 30 µM.
`CCOc1ccc(C(=O)NC2Cc3ccccc3C2)c(OC(C)=O)c1` [Compound 6, ACETIC ACID 5-ETHOXY-2-(INDAN-2-YL-CARBAMOYL)-PHENYL ESTER] showed a maximal fold induction [1] of 2.55 and an EC50 [2] of 1.2 µM.
With `CC(=O)Oc1cc(C)ccc1C(=O)NC1Cc2ccccc2C1` [Compound 7, ACETIC ACID 2-(INDAN-2-YL-CARBAMOYL)-5-METHYL-PHENYLESTER] the maximal fold induction (Homo sapiens, 18 h) was 2.57 and the EC50 (Homo sapiens, Endothelial cell, 18 h) was 0.1 µM.
Work on `Cc1ccc(C(=O)NC2Cc3ccccc3C2)c(O)c1` [Compound 22, 2-HYDROXY-N-INDAN-2-YL-4-METHYL-BENZAMIDE] yielded a maximal fold induction [1] of 2.1 and an EC50 [2] of 7 µM.
With `CCOc1ccc(C(=O)NC2Cc3ccccc3C2)c(O)c1` [Compound 23, 4-ETHOXY-2-HYDROXY-N-INDAN-2-YL-BENZAMIDE] the maximal fold induction [1] was 2.2 and the EC50 [2] was 5 µM.
Compound `O=C(NC1Cc2ccccc2C1)c1cccc(F)c1` [Compound 24, 3-FLUORO-N-INDAN-2-YL-BENZAMIDE] has a maximal fold induction [1] of 2.88 and an EC50 [2] of 2.5 µM.
`CCOc1cc(C(=O)NC2Cc3ccccc3C2)ccc1OC` [Compound 25, 3-ETHOXY-4-METHOXY-N-INDAN-2-YL-BENZAMIDE] was tested, and the maximal fold induction [1] was 2.7 and the EC50 [2] was 12 µM.
Compound `CCOc1ccc(C(=O)NC2Cc3ccccc3C2)cc1` [Compound 26, 4-ETHOXY-N-INDAN-2-YL-BENZAMIDE] has a maximal fold induction [1] of 3.8 and an EC50 [2] of 0.9 µM.
`Cc1cc(C(=O)NC2Cc3ccccc3C2)ccc1Cl` [Compound 27, 4-CHLORO-3-METHYL-N-INDAN-2-YL-BENZAMIDE] gave a maximal fold induction [1] of 3.6 and an EC50 [2] of 0.2 µM.
Compound `CC(C)Oc1ccc(C(=O)NC2Cc3ccccc3C2)cc1` [Compound 28, 4-ISOPROPYLOXY-N-INDAN-2-YL-BENZAMIDE] has a maximal fold induction [1] of 4.4 and an EC50 [2] of 2.5 µM.
Work on `Cc1ccc(C(=O)NC2Cc3ccccc3C2)cc1C` [Compound 29, 3,4-DIMETHYL-N-INDAN-2-YL-BENZAMIDE] yielded a maximal fold induction [1] of 3.8 and an EC50 [2] of 0.8 µM.
Compound `CCCCOc1ccc(C(=O)NC2Cc3ccccc3C2)cc1` [Compound 30, 4-BUTOXY-N-INDAN-2-YL-BENZAMIDE] has a maximal fold induction [1] of 2.94 and an EC50 [2] of 3 µM.
Work on `COc1ccc(C(=O)NC2Cc3ccccc3C2)cc1Cl` [Compound 31, 3-CHLORO-4-METHOXY-N-INDAN-2-YL-BENZAMIDE] yielded a maximal fold induction [1] of 3.05 and an EC50 [2] of 6 µM.
In the case of `O=C(NC1Cc2ccccc2C1)c1ccc(Oc2ccccc2)cc1` [Compound 32, 4-PHENOXY-N-INDAN-2-YL-BENZAMIDE], the maximal fold induction [1] is reported as 4 and the EC50 [2] is reported as 1.7 µM.
In the case of `O=C(NC1Cc2ccccc2C1)c1ccc(F)c(Br)c1` [Compound 33, 3-BROMO-4-FLUORO-N-INDAN-2-YL-BENZAMIDE], the maximal fold induction [1] is reported as 3.3 and the EC50 [2] is reported as 4 µM.
`Cc1ccc(C(=O)NC2Cc3ccccc3C2)cc1Cl` [Compound 34, 3-CHLORO-4-METHYL-N-INDAN-2-YL-BENZAMIDE] gave a maximal fold induction [1] of 3.4 and an EC50 [2] of 1.7 µM.
Work on `O=C(NC1Cc2ccccc2C1)c1ccc(Br)s1` [Compound 41, 5-BROMO-THIOPHEN-2-CARBOXYLIC ACID-INDAN-2-YLAMIDE] yielded a maximal fold induction [1] of 2.4 and an EC50 [2] of 0.18 µM.
`O=C(NC1Cc2ccccc2C1)c1ccc(F)cc1Br` [Compound 61, 2-BROMO-4-FLUORO-N-INDAN-2-YL-BENZAMIDE] gave a maximal fold induction [1] of 2.6 and an EC50 [2] of 0.7 µM.
For `O=C(NC1Cc2ccccc2C1)c1ccc(Cl)cc1` [Compound 69, 4-CHLORO-N-INDAN-2-YL-BENZAMIDE], the maximal fold induction [1] was 4.2 and the EC50 [2] was 0.4 µM.
Compound `Nc1ccccc1C(=O)NC1Cc2ccccc2C1` [Compound 73, 2-AMINO-N-INDAN-2-YL-BENZAMIDE] has a maximal fold induction [1] of 4 and an EC50 [2] of 0.7 µM.
`Nc1nccnc1C(=O)NC1Cc2ccccc2C1` [Compound 185, 3-AMINO-PYRAZINE-2-CARBOXYLIC ACID INDAN-2-YLAMIDE] was tested, and the maximal fold induction [1] was 2.4 and the EC50 [2] was 27 µM.
With `Cc1cc(C)c(C(=O)NC2Cc3ccccc3C2)c(N)n1` [Compound 187, 2-AMINO-N-INDAN-2-YL-4,6-DIMETRYL-NICOTINAMIDE] the EC50 [3] was 4.4 µM and the “TIR (max)” value [4] was 2.5.
Work on `Cc1cc(C)c(C(=O)NC2Cc3ccccc3C2)cn1` [Compound 189, N-INDAN-2-YL-4,6-DIMETHYL-NICOTINAMIDE] yielded a maximal fold induction [1] of 2.2 and an EC50 [2] of 10 µM.
With `O=C(NC1Cc2ccccc2C1)c1ccc(Cl)nc1Cl` [Compound 203, 2,6-DICHLORO-N-INDAN-2-YL-NICOTINAMIDE] the maximal fold induction [1] was 2.7 and the EC50 [2] was 16 µM.
`Cc1cc(C(=O)NC2Cc3ccccc3C2)c(C)[nH]1` [Compound 216, 2,5-DIMETHYL-1H-PYRROLE-3-CARBOXYLIC ACID INDAN-2-YLAMIDE] showed a maximal fold induction [1] of 2.8 and an EC50 [2] of 0.7 µM.
`Cc1cc(C(=O)NC2Cc3ccccc3C2)c(C)n1Cc1ccncc1` [Compound 230, 2,5-DIMETHYL-1-PYRIDIN-4-YLMETHYL-1H-PYRROLE-3-CARBOXYLIC ACID INDAN-2-YLAMIDE] gave a maximal fold induction [1] of 4 and an EC50 [2] of 0.82 µM.
With `Cc1nc(C)c(C(=O)NC2Cc3ccccc3C2)s1` [Compound 233, 2,4-DIMETHYL-THIAZOLE-5-CARBOXYLIC ACID INDAN-2-YLAMIDE] the maximal fold induction [1] was 2.5 and the EC50 [2] was 13 µM.
`O=C(NC1Cc2ccccc2C1)c1ccc(C(F)(F)F)nc1` [Compound 236, N-INDAN-2-YL-6-TRIFLUOROMETHYL-NICOTINAMIDE] was tested, and the maximal fold induction [1] was 2 and the EC50 [2] was 22 µM.
For `Cc1nc(C(F)(F)F)ccc1C(=O)NC1Cc2ccccc2C1` [Compound 237, N-INDAN-2-YL-2-METHYL-6-TRIFLUOROMETHYL-NICOTINAMIDE], the maximal fold induction [1] was 2.5 and the EC50 [2] was 7.7 µM.
For `COC(=O)c1cccc(C(=O)NC2Cc3ccccc3C2)c1` [Compound 243, N-INDAN-2-YL-ISOPHTHALAMIC ACID METHYL ESTER], the maximal fold induction [1] was 2.8 and the EC50 [2] was 0.11 µM.
`O=C(NC1Cc2ccccc2C1)c1ccc(SC(F)(F)F)cc1` [Compound 246, N-INDAN-2-YL-4-TRIFLUOROMETHYLSULFANYL-BENZAMIDE] showed a maximal fold induction [1] of 2.5 and an EC50 [2] of 0.67 µM.
`Cc1ccc(F)cc1C(=O)NC1Cc2ccccc2C1` [Compound 248, 5-FLUORO-N-INDAN-2-YL-2-METHYL-BENZAMIDE] was tested, and the maximal fold induction [1] was 2.8 and the EC50 [2] was 7.8 µM.
`Cc1cccc(C(=O)NC2Cc3ccccc3C2)c1F` [Compound 249, 2-FLUORO-N-INDAN-2-YL-3-METHYL-BENZAMIDE] gave a maximal fold induction [1] of 2.5 and an EC50 [2] of 15 µM.
Compound `O=C(NC1Cc2ccccc2C1)c1cccc(Cl)c1F` [Compound 250, 3-CHLORO-2-FLUORO-N-INDAN-2-YL-BENZAMIDE] has a maximal fold induction [1] of 2.5 and an EC50 [2] of 58 µM.
For `CC1=C(C(=O)NC2Cc3ccccc3C2)Cc2ccccc21` [Compound 251, 3-METHYL-1H-INDENE-2-CARBOXYLIC ACID INDAN-2-YLAMIDE], the maximal fold induction [1] was 2.6 and the EC50 [2] was 13 µM.
With `COc1c(Br)cccc1C(=O)NC1Cc2ccccc2C1` [Compound 253, 3-BROMO-N-INDAN-2-YL-2-METHOXY-BENZAMIDE] the maximal fold induction [1] was 2.2 and the EC50 [2] was 13 µM.
`O=C(NC1Cc2ccccc2C1)c1ccc(C(=O)C(F)(F)F)cc1` [Compound 256, N-INDAN-2-YL-4-(2,2,2-TRIFLUORO-ACETYL)-BENZAMIDE] gave a maximal fold induction [1] of 2.5 and an EC50 [2] of 11 µM.
Work on `Cc1c(Cl)cccc1C(=O)NC1Cc2ccccc2C1` [Compound 257, 3-CHLORO-N-INDAN-2-YL-2-METHYL-BENZAMIDE] yielded a maximal fold induction [1] of 2.7 and an EC50 [2] of 4.3 µM.
Work on `O=C(NC1Cc2ccccc2C1)c1cc(F)c(Cl)cc1Cl` [Compound 262, 2,4-DICHLORO-5-FLUORO-N-INDAN-2-YL-BENZAMIDE] yielded a maximal fold induction [1] of 2.8 and an EC50 [2] of 5.8 µM.
For `O=C(NC1Cc2ccccc2C1)c1cc(F)c(Cl)cc1F` [Compound 263, 4-CHLORO-2,5-DIFLUORO-N-INDAN-2-YL-BENZAMIDE], the maximal fold induction [1] was 2.5 and the EC50 [2] was 13 µM.
